Experimental findings from PMC7143835, “Anti-Hyperglycemic Effects of Green Crab Hydrolysates Derived by Commercially Available Enzymes” (Foods, 2020) are described below.

The target in this experiment is T1, rat intestinal α-glucosidase.
T1 construct: gene Si; crude buffer extract of rat intestinal acetone powder; mixture of brush-border alpha-glucosidases
Kind of experiment: p-nitrophenyl glucopyranoside hydrolysis, absorbance at […] nm. Format: biochemical. To be noted: 5 mM p-NPG stock (printed as beta anomer; 50 µL in 200 µL assay), 0.1 M sodium phosphate pH 6.9, 0.9% NaCl, 37 °C, 10 min preincubation; positive control; crude extract.

In brackets after ≈: the same amount, converted by molar mass.

Consider `C[C@H]1O[C@H](O[C@H]2[C@H](O)[C@@H](O)[C@@H](O[C@H]3[C@H](O)[C@@H](O)C(O)O[C@@H]3CO)O[C@@H]2CO)[C@H](O)[C@@H](O)[C@@H]1N[C@H]1C=C(CO)[C@@H](O)[C@H](O)[C@H]1O` (stereo partly shown) [acarbose], for which the IC50 came to 27 µg/mL (≈ 41.8 µM).
